Values quoted from earlier work, collected in US8617624B2, “Compositions, systems and methods for the diagnosis, prevention and treatment of disorders associated with azetidine-2-carboxylic acid” (priority 2006, dated 2013).

Key:
hamsters = conditions: exposure during pregnancy in hamsters
pregnant mice = conditions: fed to pregnant mice

SMILES | increase in plasma proline concentration (1 mmol proline/kg lean body mass) | plasma proline increase when glucose also ingested (1 mmol proline/kg lean body mass with about 25 g of glucose) | absorption of proline (ingestion) | teratogenic effect (hamsters) | effect on wound healing (pigs) | teratogenic effect (pregnant mice)
O=C(O)[C@@H]1CCCN1 [proline] | approximately 13 fold | decreased by half | readily absorbed |  |  | 
O=C(O)C1CCN1 (stereo not drawn) [Aze, Azetidine-2-carboxylic acid] |  |  |  | fetal weight abnormalities, tissue hemorrhages, cleft palate, retarded ossifications, and shortened bones | delayed wound healing | predisposes to cleft palate
